{"source": "patent US8415299B2", "about": "“Methods for improved avian performance” (priority 2004, dated 2013)", "system": "Cobb broiler breeder hens and roosters", "assay_type": "in vivo", "note": "Read-outs that look alike come from different tables or passages of the source.", "excerpt": "Molting Cobb Broiler Breeder Hens and Roosters with Dietary Thyroxine.", "data": [{"smiles": "N[C@@H](Cc1cc(I)c(Oc2cc(I)c(O)c(I)c2)c(I)c1)C(=O)O", "note": "[L-thyroxine, 3,5,3′,5′-tetraiodothyronine]", "values": [{"measurement": "# Eggs per pen", "setting": "25 ppm feed from 22-Sep, pen 50, 19-Sep", "result": 17}, {"measurement": "# Eggs per pen", "setting": "25 ppm feed from 22-Sep, pen 50, 20-Oct", "result": 0}, {"measurement": "# Eggs per pen", "setting": "25 ppm feed from 22-Sep, pen 50, 20-Sep", "result": 15}, {"measurement": "# Eggs per pen", "setting": "25 ppm feed from 22-Sep, pen 50, 21-Oct", "result": 0}, {"measurement": "# Eggs per pen", "setting": "25 ppm feed from 22-Sep, pen 50, 21-Sep", "result": 14}, {"measurement": "# Eggs per pen", "setting": "25 ppm feed from 22-Sep, pen 50, 22-Oct", "result": 0}, {"measurement": "# Eggs per pen", "setting": "25 ppm feed from 22-Sep, pen 50, 22-Sep", "result": 14}, {"measurement": "# Eggs per pen", "setting": "25 ppm feed from 22-Sep, pen 50, 23-Oct", "result": 0}, {"measurement": "# Eggs per pen", "setting": "25 ppm feed from 22-Sep, pen 50, 23-Sep", "result": 19}, {"measurement": "# Eggs per pen", "setting": "25 ppm feed from 22-Sep, pen 50, 24-Oct", "result": 0}, {"measurement": "# Eggs per pen", "setting": "25 ppm feed from 22-Sep, pen 50, 24-Sep", "result": 7}, {"measurement": "# Eggs per pen", "setting": "25 ppm feed from 22-Sep, pen 50, 25-Oct", "result": 0}, {"measurement": "# Eggs per pen", "setting": "25 ppm feed from 22-Sep, pen 50, 25-Sep", "result": 8}, {"measurement": "# Eggs per pen", "setting": "25 ppm feed from 22-Sep, pen 50, 26-Oct", "result": 0}, {"measurement": "# Eggs per pen", "setting": "25 ppm feed from 22-Sep, pen 50, 26-Sep", "result": 9}, {"measurement": "# Eggs per pen", "setting": "25 ppm feed from 22-Sep, pen 50, 27-Oct", "result": 0}, {"measurement": "# Eggs per pen", "setting": "25 ppm feed from 22-Sep, pen 50, 27-Sep", "result": 4}, {"measurement": "# Eggs per pen", "setting": "25 ppm feed from 22-Sep, pen 50, 28-Oct", "result": 0}, {"measurement": "# Eggs per pen", "setting": "25 ppm feed from 22-Sep, pen 50, 28-Sep", "result": 3}, {"measurement": "# Eggs per pen", "setting": "25 ppm feed from 22-Sep, pen 50, 29-Oct", "result": 0}, {"measurement": "# Eggs per pen", "setting": "25 ppm feed from 22-Sep, pen 50, 29-Sep", "result": 1}, {"measurement": "# Eggs per pen", "setting": "25 ppm feed from 22-Sep, pen 50, 30-Oct", "result": 0}, {"measurement": "# Eggs per pen", "setting": "25 ppm feed from 22-Sep, pen 50, 30-Sep", "result": 0}, {"measurement": "# Eggs per pen", "setting": "25 ppm feed from 22-Sep, pen 50, 31-Oct", "result": 0}, {"measurement": "# Eggs per pen", "setting": "40 ppm feed from 22-Sep, pen 51, 1-Nov", "result": 1}, {"measurement": "# Eggs per pen", "setting": "40 ppm feed from 22-Sep, pen 51, 1-Oct", "result": 1}, {"measurement": "# Eggs per pen", "setting": "40 ppm feed from 22-Sep, pen 51, 2-Nov", "result": 3}, {"measurement": "# Eggs per pen", "setting": "40 ppm feed from 22-Sep, pen 51, 2-Oct", "result": 0}, {"measurement": "# Eggs per pen", "setting": "40 ppm feed from 22-Sep, pen 51, 3-Nov", "result": 3}, {"measurement": "# Eggs per pen", "setting": "40 ppm feed from 22-Sep, pen 51, 3-Oct", "result": 0}, {"measurement": "# Eggs per pen", "setting": "40 ppm feed from 22-Sep, pen 51, 4-Nov", "result": 5}, {"measurement": "# Eggs per pen", "setting": "40 ppm feed from 22-Sep, pen 51, 4-Oct", "result": 0}, {"measurement": "# Eggs per pen", "setting": "40 ppm feed from 22-Sep, pen 51, 5-Oct", "result": 0}, {"measurement": "# Eggs per pen", "setting": "40 ppm feed from 22-Sep, pen 51, 6-Oct", "result": 0}, {"measurement": "# Eggs per pen", "setting": "40 ppm feed from 22-Sep, pen 51, 7-Oct", "result": 0}, {"measurement": "# Eggs per pen", "setting": "40 ppm feed from 22-Sep, pen 51, 8-Oct", "result": 0}, {"measurement": "# Eggs per pen", "setting": "40 ppm feed from 22-Sep, pen 51, 9-Oct", "result": 0}, {"measurement": "# Eggs per pen", "setting": "40 ppm feed from 22-Sep, pen 51, 10-Oct", "result": 0}, {"measurement": "# Eggs per pen", "setting": "40 ppm feed from 22-Sep, pen 51, 11-Oct", "result": 0}, {"measurement": "# Eggs per pen", "setting": "40 ppm feed from 22-Sep, pen 51, 12-Oct", "result": 0}, {"measurement": "# Eggs per pen", "setting": "40 ppm feed from 22-Sep, pen 51, 13-Oct", "result": 0}, {"measurement": "# Eggs per pen", "setting": "40 ppm feed from 22-Sep, pen 51, 14-Oct", "result": 0}, {"measurement": "# Eggs per pen", "setting": "40 ppm feed from 22-Sep, pen 51, 15-Oct", "result": 0}, {"measurement": "# Eggs per pen", "setting": "40 ppm feed from 22-Sep, pen 51, 16-Oct", "result": 0}, {"measurement": "# Eggs per pen", "setting": "40 ppm feed from 22-Sep, pen 51, 16-Sep", "result": 12}, {"measurement": "# Eggs per pen", "setting": "40 ppm feed from 22-Sep, pen 51, 17-Oct", "result": 0}, {"measurement": "# Eggs per pen", "setting": "40 ppm feed from 22-Sep, pen 51, 17-Sep", "result": 19}, {"measurement": "# Eggs per pen", "setting": "40 ppm feed from 22-Sep, pen 51, 18-Oct", "result": 0}, {"measurement": "# Eggs per pen", "setting": "40 ppm feed from 22-Sep, pen 51, 18-Sep", "result": 19}, {"measurement": "# Eggs per pen", "setting": "40 ppm feed from 22-Sep, pen 51, 19-Oct", "result": 0}, {"measurement": "# Eggs per pen", "setting": "40 ppm feed from 22-Sep, pen 51, 19-Sep", "result": 20}, {"measurement": "# Eggs per pen", "setting": "40 ppm feed from 22-Sep, pen 51, 20-Oct", "result": 0}, {"measurement": "# Eggs per pen", "setting": "40 ppm feed from 22-Sep, pen 51, 20-Sep", "result": 16}, {"measurement": "# Eggs per pen", "setting": "40 ppm feed from 22-Sep, pen 51, 21-Oct", "result": 0}, {"measurement": "# Eggs per pen", "setting": "40 ppm feed from 22-Sep, pen 51, 21-Sep", "result": 16}, {"measurement": "# Eggs per pen", "setting": "40 ppm feed from 22-Sep, pen 51, 22-Oct", "result": 0}, {"measurement": "# Eggs per pen", "setting": "40 ppm feed from 22-Sep, pen 51, 22-Sep", "result": 18}, {"measurement": "# Eggs per pen", "setting": "40 ppm feed from 22-Sep, pen 51, 23-Oct", "result": 0}, {"measurement": "# Eggs per pen", "setting": "40 ppm feed from 22-Sep, pen 51, 23-Sep", "result": 15}, {"measurement": "# Eggs per pen", "setting": "40 ppm feed from 22-Sep, pen 51, 24-Oct", "result": 0}, {"measurement": "# Eggs per pen", "setting": "40 ppm feed from 22-Sep, pen 51, 24-Sep", "result": 10}, {"measurement": "# Eggs per pen", "setting": "40 ppm feed from 22-Sep, pen 51, 25-Oct", "result": 0}, {"measurement": "# Eggs per pen", "setting": "40 ppm feed from 22-Sep, pen 51, 25-Sep", "result": 11}, {"measurement": "# Eggs per pen", "setting": "40 ppm feed from 22-Sep, pen 51, 26-Oct", "result": 0}, {"measurement": "# Eggs per pen", "setting": "40 ppm feed from 22-Sep, pen 51, 26-Sep", "result": 6}, {"measurement": "# Eggs per pen", "setting": "40 ppm feed from 22-Sep, pen 51, 27-Oct", "result": 0}, {"measurement": "# Eggs per pen", "setting": "40 ppm feed from 22-Sep, pen 51, 27-Sep", "result": 5}, {"measurement": "# Eggs per pen", "setting": "40 ppm feed from 22-Sep, pen 51, 28-Oct", "result": 0}, {"measurement": "# Eggs per pen", "setting": "40 ppm feed from 22-Sep, pen 51, 28-Sep", "result": 0}, {"measurement": "# Eggs per pen", "setting": "40 ppm feed from 22-Sep, pen 51, 29-Oct", "result": 3}, {"measurement": "# Eggs per pen", "setting": "40 ppm feed from 22-Sep, pen 51, 29-Sep", "result": 1}, {"measurement": "# Eggs per pen", "setting": "40 ppm feed from 22-Sep, pen 51, 30-Oct", "result": 3}, {"measurement": "# Eggs per pen", "setting": "40 ppm feed from 22-Sep, pen 51, 30-Sep", "result": 0}, {"measurement": "# Eggs per pen", "setting": "40 ppm feed from 22-Sep, pen 51, 31-Oct", "result": 3}, {"measurement": "Time to reduced feed intake, ceased egg production and start of feather molt", "setting": "Cobb broiler breeder hens on thyroxine treated feed (25 or 40 mg/kg)", "result": "15 to 17", "unit": "days"}]}]}
